Data: patent US6610706B1, “Crystalline form of 6-hydroxy-3-(4-[2-(piperidin-1-yl)ethoxy]phenoxy)-2-(4-methoxyphenyl)benzo[b]thiophene hydrochloride” (Eli Lilly and Company, priority 1999, dated 2003)

Key:
Format in all cases: physicochemical
[1] = Hygroscopicity / moisture sorption isotherms (VTI vacuum moisture balance)
Procedure: Hygroscopicicity studies were performed on F-I and F-III. Upon initial exposure of the samples to approximately 5% RH, there was an immediate weight gain of 1.5% and 1.7% moisture for F-I and F-III, respectively, equivalent to approximately 0.5 mole of water. Both forms show a continuous sorption of moisture through the entire humidity range, which is likely due to incorporation of water molecules in the lattices. The moisture sorption profiles for F-I and F-III reveal that these forms are essentially non-stoichiometric hydrates. At ambient relative humidity (about 50% RH), F-I contains approximately 1.7% water, corresponding to 0.5 moles of water, while F-III has sorbed about 3.0% water which corresponds to about 0.85 moles of water. The bulk forms of F-I and F-III rapidly equilibrate with the atmosphere, so that the water content observed by analytical techniques is a reflection of the relative humidity at the time of data collection. Lot-to-lot differences observed in the DSC data likely results from the samples being hydrated to different extents due to different ambient storage conditions. Hygroscopicity measurements were made for F-I and F-III using the VTI method as follows. Each sample was dried under vacuum at 60° C. until no further weight loss was detected, at which time the sample chamber was brought to 0% relative humidity. Moisture sorption isotherms were obtained at 25° C. using a VTI vacuum moisture balance with the following conditions: sample size 10-15 mg, adsorption/desorption range 0-95% relative humidity, step interval 5%, sample interval 10 minutes.

[2] = Stability of crystal forms stored at different relative humidities (XRD); settings: entire relative humidity range (0-95% RH)
Procedure: XRD patterns were obtained for samples of F-I and F-III stored at different relative humidities (0, 22, 50, and 80%). There is a gradual shifting of the initial (0% RH) F-III peaks at about 13.8, 17.6, 18.0, 20.5 and 24.0° in 2θ as well as slight shifting of less intense peaks, as the relative humidity is increased. These observed changes in the XRD patterns of F-III indicate that the unit cell dimensions are changing, presumably to accommodate weakly held water molecules as the relative humidity is increased.
A similar experiment was carried out on F-I to determine whether varying the relative humidity would have a similar effect on its lattice (0, 25, 52, 73 and 95% RH). Very slight shifting of the 0% RH peaks at about 7.7, 18.3, 18.5, 20.5, 20.8° in 2θ is observed as the relative humidity is increased. […] The shifting of peaks in the XRD patterns of F-I is less dramatic than the peak shifts observed as F-III was exposed to different relative humidities.
XRD patterns were obtained on a Siemens D5000 X-ray powder diffractometer, equipped with a CuKα source (λ=1.54056 Å) and a Kevex solid-state detector, operating at 50 kV and 40 mA. Each sample was scanned between 4° and 35° in 2θ. Samples were allowed to equilibrate for at least 30 minutes at the desired temperature and/or relative humidity before data collection.

[3] = Aqueous solubility and dissolution rate comparison of crystal forms; settings: comparison of the two forms
[4] = Stability at ambient temperature relative to arzoxifene prepared per '474; settings: relative to arzoxifene produced by the procedures taught in '474

water content at ambient relative humidity ([1]; about 50% RH): about 3.0% | water content at ambient relative humidity, in moles of water ([1]; about 50% RH): about 0.85 moles | water equivalent of the initial weight gain ([1]; approximately 5% RH): approximately 0.5 mole | immediate weight gain (moisture) upon initial exposure ([1]; approximately 5% RH, 25° C., after vacuum drying at 60° C.): 1.7% | aqueous solubilities (F-I versus F-III) [3]: comparable | dissolution rates (F-I versus F-III) [3]: comparable | stability at ambient temperature [4]: more stable at ambient temperature
Structure (SMILES): COc1ccc(-c2sc3cc(O)ccc3c2Oc2ccc(OCCN3CCCCC3)cc2)cc1.Cl [F-III, 6-hydroxy-3-(4-[2-(piperidin-1-yl)ethoxy]phenoxy)-2-(4-methoxyphenyl)benzo[b]thiophene hydrochloride]
stability over relative humidity range [2]: stable over the entire relative humidity range
